# Experimental data as given in ChEMBL document CHEMBL1833960, “Identification of 5,6-substituted 4-aminothieno[2,3-d]pyrimidines as LIMK1 inhibitors” (Bioorg Med Chem Lett, 2011).
# Columns and labels:
# LIM domain kinase 1 [1] = biological target: T1, LIM domain kinase 1 (Homo sapiens, UniProt P53667); test: Inhibition of LIMK1 using cofilin-2 as substrate after 60 mins by Kinase-Glo assay
# LIM domain kinase 1 [2] = biological target: T1, LIM domain kinase 1; test: Inhibition of LIMK1 using cofilin-2 as substrate after 60 mins by TR-FRET assay
# T1 sequence (P53667 whole entry, the tested form may be a part): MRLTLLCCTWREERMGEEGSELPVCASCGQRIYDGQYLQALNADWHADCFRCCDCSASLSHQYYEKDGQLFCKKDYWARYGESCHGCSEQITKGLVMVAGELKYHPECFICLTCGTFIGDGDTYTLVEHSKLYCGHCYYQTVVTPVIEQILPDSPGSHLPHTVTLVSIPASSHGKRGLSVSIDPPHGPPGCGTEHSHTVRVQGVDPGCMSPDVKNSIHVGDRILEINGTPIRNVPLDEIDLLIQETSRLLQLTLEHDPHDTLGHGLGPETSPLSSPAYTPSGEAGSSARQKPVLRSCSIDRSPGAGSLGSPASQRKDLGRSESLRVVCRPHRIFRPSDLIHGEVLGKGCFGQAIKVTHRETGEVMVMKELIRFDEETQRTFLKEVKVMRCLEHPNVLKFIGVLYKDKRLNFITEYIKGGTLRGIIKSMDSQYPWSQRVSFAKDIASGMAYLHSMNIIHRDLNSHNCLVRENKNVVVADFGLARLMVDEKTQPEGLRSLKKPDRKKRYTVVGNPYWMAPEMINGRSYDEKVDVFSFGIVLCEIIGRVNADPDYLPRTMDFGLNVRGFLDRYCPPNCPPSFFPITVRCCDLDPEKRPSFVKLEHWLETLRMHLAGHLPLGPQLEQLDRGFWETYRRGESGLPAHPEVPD
SMILES,IC50 (LIM domain kinase 1 [1]),IC50 (LIM domain kinase 1 [2])
CN(C)c1ncnc2sc3c(c12)CCCC3,> 100 µM,> 100 µM
COc1ccc(Nc2ncnc3sc4c(c23)CCCC4)cc1,> 100 µM,> 100 µM
OCCNc1ncnc2sc3c(c12)CCCC3,> 100 µM,> 100 µM
c1ccc(CCNc2ncnc3sc4c(c23)CCCC4)cc1,> 100 µM,> 100 µM
Cc1sc2ncnc(N)c2c1C,4.4 µM,4.4 µM
Nc1nc(-c2ccccc2)nc2sc3c(c12)CCCC3,> 100 µM,> 100 µM
CC1(C)Cc2c(sc3ncnc(N)c23)CO1,12.7 µM,12.7 µM
Nc1ncnc2c1sc1ccccc12,7 µM,–
Cn1c2ccccc2c2ncnc(N)c21,4 µM,–
Nc1ncnc2c1sc1cc(-c3ccccc3)ccc12,0.3 µM,–
Cn1c2cc(-c3ccccc3)ccc2c2ncnc(N)c21,0.26 µM,–
COc1ccc(-c2sc3ncnc(N)c3c2C)cc1OC,3.2 µM,3.2 µM
Nc1ncnc2sc3c(c12)Cc1ccccc1-3,11 µM,11 µM
CCOC(=O)C1CCc2c(sc3ncnc(N)c23)C1 (stereo not given),2.3 µM,2.3 µM
NC(=O)C1CCc2c(sc3ncnc(N)c23)C1 (stereo not given),9.1 µM,9.1 µM
Nc1ncnc2sc3c(c12)CCC(C(=O)N1CCOCC1)C3 (stereo not given),9.5 µM,9.5 µM
Nc1ncnc2sc3c(c12)CCN(Cc1ccccc1)C3,0.66 µM,0.66 µM
CC1(C)CCc2c(sc3ncnc(N)c23)C1,2.8 µM,2.8 µM
Nc1ncnc2sc3c(c12)CCOC3,3.5 µM,3.5 µM
Nc1ncnc2sc3c(c12)CCc1ccccc1-3,4.3 µM,4.3 µM
Nc1ncnc2sc3c(c12)CCC(c1ccccc1)C3 (stereo not given),> 20 µM,> 20 µM
Cc1c(-c2ccccc2)sc2ncnc(N)c12,17 µM,17 µM
Nc1ncnc2sc3c(c12)CCC(C(=O)O)C3 (stereo not given),> 20 µM,> 20 µM

SMILES,IC50 (LIM domain kinase 1 [1]),IC50 (LIM domain kinase 1 [2])
Nc1ncnc2sc3c(c12)CCC(C(=O)NCc1ccccc1)C3 (stereo not given),8.6 µM,8.6 µM
Nc1ncnc2sc3c(c12)CCCC3,4 µM,4 µM
Nc1ncnc2sc3c(c12)CCC3,5.3 µM,5.3 µM
Nc1ncnc2sc3c(c12)CCCCC3,2.5 µM,2.5 µM
Cc1nc(N)c2c3c(sc2n1)CCCC3,> 100 µM,> 100 µM
Nc1nc(S)nc2sc3c(c12)CCCCC3,> 100 µM,> 100 µM
CSc1nc(N)c2c3c(sc2n1)CCC3,> 100 µM,> 100 µM
Nc1nc(=S)[nH]c2sc3c(c12)CCCC3,> 100 µM,> 100 µM
Nc1nc(SCC(=O)O)nc2sc3c(c12)CCCC3,> 100 µM,> 100 µM
Nc1nc(-c2cccs2)nc2sc3c(c12)CCCC3,> 100 µM,> 100 µM
CSc1nc(N)c2c3c(sc2n1)CCCCC3,> 100 µM,> 100 µM
CNc1ncnc2sc3c(c12)CCCC3,> 100 µM,> 100 µM
NCCNc1ncnc2sc3c(c12)CCCC3,> 100 µM,> 100 µM
CC(Nc1ncnc2sc3c(c12)CCCC3)c1ccccc1 (stereo not given),> 100 µM,> 100 µM
c1nc(N2CCCCC2)c2c3c(sc2n1)CCCC3,> 100 µM,> 100 µM
Nc1ncnc2sc3c(c12)CC1CC3C1,1.8 µM,1.8 µM
CC1CCc2c(sc3ncnc(N)c23)C1 (stereo not given),18 µM,18 µM
CC1(C)CCc2sc3ncnc(N)c3c21,2.1 µM,2.1 µM
CC1CCCc2sc3ncnc(N)c3c21 (stereo not given),2.7 µM,2.7 µM
NC(=O)c1sc2ncccc2c1N,37 µM,–
NC(=O)c1sc2ccccc2c1N,33 µM,–
Nc1ncnc2c1sc1ncccc12,9 µM,–
CSc1nc(N)c2c3c(sc2n1)CCCC3,> 100 µM,> 100 µM
